For data set [1], the system named is P. granulosum EG13NS. Put plainly: MIC determination by broth microdilution (anaerobic). The format is cell-based. The settings on record: read-out: MIC (μg/ml) P. granulosum EG13NS. Here is the method:
(§1) All MIC values are determined by broth microdilution according to the guidelines by the Clinical and Laboratory Standards Institute (CLSI, Wayne Pa., USA). Staphylococcus aureus ATCC29213 is grown on Müller-Hinton agar (MHA) (Becton Dickinson) and then in cation-adjusted Müller Hinton broth (CaMHB) (Becton Dickinson) for 24 h at 37° C. Streptococcus pyogenes ATCC19615 and Moraxella catharrhalis QK34 are grown on MHA with 2.5% Laked Horse Blood (Oxoid). Liquid cultures in CaMHB+5% horse serum (Sigma) are incubated for 24 h at 35° C. in a 5% CO2 atmosphere. Haemophilus. influenzae 3168 is grown on MHA+2.5% Fildes extract (Oxoid). Liquid cultures are grown in CaMHB+5% Fildes extract at 35° C. in a 5% CO2 atmosphere. Propionibacteria are grown on Wilkins-Chalgren agar (WCA) (Oxoid) for 72 h under anaerobic conditions. Liquid cultures are grown anaerobically in Wilkins-Chalgren broth (WCB) (Oxoid) for 48 h at 35° C. MIC values are obtained by broth microdilution using WCB (Anaerobe Broth MIC, Difco). Microtitre plates are loaded into 7-L GENbox anaerobic incubation jars (BioMerieux) fitted with anaerobic atmosphere generators (BioMerieux) and a Dry Anaerobic Indicator Strip (BBL). Under these conditions, an O2 concentration <0.1% is achieved by 2.5 h, and a CO2 concentration >15% by 24 h.
Background: Broth dilution looks for growth in wells or tubes with falling amounts of substance.

Data set [2] has as its system M. catarrhalis QK34. Put plainly: MIC determination by broth microdilution. The settings on record: Moraxella catarrhalis, read-out: MIC (μg/ml) M. catarrhalis QK34. It is filed as cell-based, Moraxella catharrhalis. How it is done:
as §1

Data set [3] concerns S. pyogenes ATCC19615. Put plainly: MIC determination by broth microdilution. It is filed as cell-based. The settings on record: Streptococcus pyogenes, read-out: MIC (μg/ml) S. pyogenes ATCC19615. Here is the method:
as §1

Data set [4] has as its system S. aureus ATCC29213. Put plainly: MIC determination by broth microdilution. The format is cell-based. The settings on record: Staphylococcus aureus, read-out: MIC (μg/ml) S. aureus ATCC29213. Here is the method:
as §1

The subject of data set [5] is H. influenzae 3168. Put plainly: MIC determination by broth microdilution. The format is cell-based. The settings on record: Haemophilus influenzae, read-out: MIC (μg/ml) H. influenzae 3168. Here is the method:
as §1

Data set [6] deals with hERG channel (Homo sapiens (Human), UniProt Q12809). Put plainly: Blocking of hERG channel, whole-cell patch clamp in stably transfected HEK 293 cells. The format is cell-based. The settings on record: for Blocking of hERG @ 1 μM (% remaining tail current) / Blocking of hERG @ 10 μM (% remaining tail current): HEK 293 cells. (Block of hERG is tested as a sign of cardiac risk.)
hERG channel, sequence (Q12809 whole entry): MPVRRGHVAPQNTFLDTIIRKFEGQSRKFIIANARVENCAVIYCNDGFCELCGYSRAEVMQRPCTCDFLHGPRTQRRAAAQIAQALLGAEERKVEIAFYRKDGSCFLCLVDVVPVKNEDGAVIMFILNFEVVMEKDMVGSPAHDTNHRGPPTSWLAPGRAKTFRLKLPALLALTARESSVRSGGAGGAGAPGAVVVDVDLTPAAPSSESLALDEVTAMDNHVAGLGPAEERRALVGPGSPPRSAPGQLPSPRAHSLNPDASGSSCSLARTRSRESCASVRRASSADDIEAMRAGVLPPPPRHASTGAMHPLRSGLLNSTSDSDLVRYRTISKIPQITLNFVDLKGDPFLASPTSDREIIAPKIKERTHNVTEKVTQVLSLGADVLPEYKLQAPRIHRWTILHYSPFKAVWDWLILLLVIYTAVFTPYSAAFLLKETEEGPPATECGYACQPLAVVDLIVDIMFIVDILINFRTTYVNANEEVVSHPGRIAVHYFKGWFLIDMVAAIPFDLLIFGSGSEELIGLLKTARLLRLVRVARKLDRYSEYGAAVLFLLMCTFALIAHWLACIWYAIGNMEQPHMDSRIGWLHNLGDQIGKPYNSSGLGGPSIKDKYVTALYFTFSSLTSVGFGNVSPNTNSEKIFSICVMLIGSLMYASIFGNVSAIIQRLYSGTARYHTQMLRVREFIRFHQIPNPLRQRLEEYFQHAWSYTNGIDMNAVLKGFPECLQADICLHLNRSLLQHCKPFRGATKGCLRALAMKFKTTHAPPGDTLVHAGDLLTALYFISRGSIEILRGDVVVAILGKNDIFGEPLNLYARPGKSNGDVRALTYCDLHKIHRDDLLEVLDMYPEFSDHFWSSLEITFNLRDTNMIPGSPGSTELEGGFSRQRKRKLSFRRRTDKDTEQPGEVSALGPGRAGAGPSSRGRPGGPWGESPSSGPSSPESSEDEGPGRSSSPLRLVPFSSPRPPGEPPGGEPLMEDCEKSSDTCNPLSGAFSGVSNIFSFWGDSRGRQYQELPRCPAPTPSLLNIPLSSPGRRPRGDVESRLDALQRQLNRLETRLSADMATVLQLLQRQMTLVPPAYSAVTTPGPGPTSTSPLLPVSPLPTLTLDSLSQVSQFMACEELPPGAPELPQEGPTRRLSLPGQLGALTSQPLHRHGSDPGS

Data set [7] can be described thus: Oral bioavailability, pharmacokinetic study in mice. It is filed as in vivo, mouse. The settings on record: for bioavailability: in vivo, mouse, 10 mg/kg oral, 1 mg/kg intravenous, dose-normalized AUC, read-out: Oral bioavail. (mouse F %). Here is the method: Drug concentrations in blood or plasma are determined as a function of time in pharmacokinetic studies. Mice were treated with the test compound at defined doses. 10 mg/kg is used for oral administration and 1 mg/kg is taken for intravenous administration. Blood or plasma samples are collected at defined time-points and the drug content is determined by LC-MS/MS. The drug concentration is plotted as a function of time and the non-intravenous (oral) and the intravenous area under the curve (AUC) is calculated using the linear trapezoidal rule. The oral bioavailability is then calculated using dose-normalized AUC with the following formula: F[%]=AUCoral/AUCintravenous*100 Blocking of hERG Channel

Data set [8] deals with P. acnes EG7NS. Put plainly: MIC determination by broth microdilution (anaerobic). The format is cell-based, Propionibacterium acnes. The settings on record: for MIC: Cutibacterium acnes, EG7NS, read-out: MIC (μg/ml) P. acnes EG7NS. Here is the method: as §1
For data set [9], the target named is PDE4 (U937). Put plainly: PDE4 enzyme inhibition, IMAP fluorescence polarization assay. It is filed as biochemical, human. The settings on record: for IC50: PDE4 partially purified from U937 cells. Here is the method:
PDE4 is partially purified from undifferentiated human monocytic cells (U937) according to Thorpy et al. 1992 (J. Pharmacol. Exp. Ther. 263: 1195). Cells are grown in Iscove's modified Dulbecco's medium (GIBCO) with 5% foetal bovine serum (GIBCO) and 100 μg/mL penicillin-streptomycin (GIBCO). Cells are broken by sonication and PDE4 is purified by anion-exchange chromatography on DEAE-Sepharose CL-6B (GE Healthcare). […] In addition, PDE4 preparations are validated by inhibition studies with PDE4-specific and unspecific PDE inhibitors.
PDEs specifically hydrolyze cAMP and/or cGMP and release the product AMP and/or GMP. The potency of PDE inhibition by test compounds is determined with a commercially available in vitro enzymatic assay (IMAP® Fluorescence Polarization assay, Molecular Devices Corp.). Fluorescently labeled cAMP or cGMP is hydrolyzed by PDE preparations and in a second step, binding of labeled product to a large binding partner allows product detection by fluorescence polarization (FP) measurements.
Stock solutions of the test compounds are made in DMSO and diluted in assay buffer (10 mM Tris-HCl, 10 mM MgCl2, 0.1% BSA 0.05% NaN3, pH 7.2) to the desired concentrations. The solutions used in the assay contain the test compound in assay buffer with 2% DMSO. 5 μl of this pre-diluted test compound solution are mixed with 10 μl of substrate (FL-cAMP or FL-cGMP) at concentrations recommended by the manufacturer and with 5 μl of appropriately diluted PDE. 5 μl of reaction buffer with 2% DMSO are used for control reactions. […] After incubation for 90 minutes at room temperature, 60 μl of binding reagent are added as specified by the manufacturer. Binding is allowed to proceed for 30 minutes and fluorescence polarization is measured. Dose dependence of PDE inhibition is measured by assaying dilution series of test compounds. IC50 values are determined from the measured activities by curve fitting.
(In general: In fluorescence polarisation assays a small probe gives low polarisation when free and higher when bound to something large.)

For data set [10], the system named is bacteria. Put plainly: Antibacterial activity. It is filed as cell-based. How it is done: as §1

The values that follow come from patent US9738676B2, “Selected macrolides with PDE4-inhibiting activity” (Basilea Pharmaceutica AG, priority 2012, dated 2017).

Values after ≈ are worked out from the molar mass of the structure shown.

One may read the IC50 as the concentration that gives 50% inhibition. Low values mean greater potency, high ones weaker potency. Regarding `CC[C@H]1OC(=O)[C@H](C)[C@@H](O)[C@H](C)[C@@H](O[C@@H]2O[C@H](C)C[C@H](N(C)C(=O)N3CCOCC3)[C@H]2O)[C@](C)(OC)C[C@@H](C)C(=O)[C@H](C)[C@H]2[C@H](SCCOc3cc(C(=O)Nc4c(Cl)cncc4Cl)ccc3OC)C(=O)O[C@@]21C`, the MIC in [1], in data set [2], in data set [3], in [4], in data set [5] and in [8] was above 32 µg/mL each time. Besides, the “Blocking of hERG @ 1 μM (% remaining tail current)” value in [6] came to 99.9%. In [6], the “Blocking of hERG @ 10 μM (% remaining tail current)” value is reported as 100%. Besides, the bioavailability in data set [7] came out at 11.5%. Further, the IC50 in data set [9] is 0.0001 µM.

Turning to `CC[C@H]1OC(=O)[C@H](C)[C@@H](O[C@H]2C[C@@](C)(OC)[C@@H](O)[C@H](C)O2)[C@H](C)[C@@H](O[C@@H]2O[C@H](C)C[C@H](N(C)C(=O)N3CCOCC3)[C@H]2O)[C@](C)(OC)C[C@@H](C)C(=O)[C@H](C)[C@H]2[C@H](SCCN(Cc3c(Cl)cncc3Cl)c3ccc(OC)c(OC4CCCC4)c3)C(=O)O[C@@]21C`, the MIC in [1], in data set [2], in data set [3], in data set [4], in data set [5] and in data set [8] was above 32 µg/mL in each case. The “Blocking of hERG @ 1 μM (% remaining tail current)” value in data set [6] is on record as 99.2%. The “Blocking of hERG @ 10 μM (% remaining tail current)” value in data set [6] is 82.9%. In addition, the bioavailability in [7] stood at 1.5%. This molecule gave an IC50 in [9] of 0.043 µM.

Regarding `CC[C@H]1OC(=O)[C@H](C)[C@@H](O)[C@H](C)[C@@H](O[C@@H]2O[C@H](C)C[C@H](N(C)C(=O)N3CCOCC3)[C@H]2O)[C@](C)(OC)C[C@@H](C)C(=O)[C@H](C)[C@H]2C(SCCN(Cc3c(Cl)cncc3Cl)c3ccc(OC)c(OC4CCCC4)c3)C(=O)O[C@@]21C` (stereo in doubt) [compound of formula (I)], the MIC in data set [1], in [2], in [3], in data set [4], in [5] and in data set [8] was above 32 µg/mL throughout. Further, in data set [6], the “hERG channel inhibiting activity (in words)” value was “does not inhibit”. Further, the “Blocking of hERG @ 1 μM (% remaining tail current)” value in [6] is given as 99.9%. Further, the “Blocking of hERG @ 10 μM (% remaining tail current)” value in data set [6] was 98%. Moreover, in data set [7], the “oral bioavailability (in words)” value is given as “particularly good”. The bioavailability in data set [7] stood at 22.8%. Also, the “antibacterial activity (in words)” value in [10] is given as “strongly reduced”. The “PDE4-inhibiting activity (in words)” value in [9] is listed as “excellent”. 0.035 µM corresponded to half-maximal inhibition in data set [9] (IC50).

With `CC[C@H]1OC(=O)[C@H](C)[C@@H](O[C@H]2C[C@@](C)(OC)[C@@H](O)[C@H](C)O2)[C@H](C)[C@@H](O[C@@H]2O[C@H](C)C[C@H](N(C)C(=O)N3CCOCC3)[C@H]2O)[C@](C)(OC)C[C@@H](C)C(=O)[C@H](C)[C@H]2N(CCCOc3cc(C(=O)Nc4c(Cl)cncc4Cl)ccc3OC)C(=O)O[C@]12C` [Example 2 of WO2001/018510], the MIC was above 32 µg/mL in [1]; above 32 µg/mL in data set [2]; above 32 µg/mL in data set [3]; above 32 µg/mL in [4]; above 32 µg/mL in data set [5]; 2 µg/mL (≈ 1.63 µM) in [8]. Further, in data set [6], the “hERG channel inhibiting activity (in words)” value is recorded as “acceptable”. Further, the “Blocking of hERG @ 1 μM (% remaining tail current)” value in [6] is given as 99%. Besides, the “Blocking of hERG @ 10 μM (% remaining tail current)” value in [6] is 84%. Further, the “oral bioavailability (in words)” value in [7] is recorded as “moderate to good”. Further, the bioavailability in data set [7] is 16.2%. Further, the “antibacterial activity (in words)” value in data set [10] was “low against many bacterial strains”. In addition, the “activity against certain strains of Propionibacterium acnes (in words)” value in data set [8] is on record as “still very active”. Further, the IC50 in data set [9] was found to be 0.876 µM.

For `CC[C@H]1OC(=O)[C@H](C)[C@@H](O)[C@H](C)[C@@H](O[C@@H]2O[C@H](C)C[C@H](N(C)C)[C@H]2OC)[C@](C)(OC)C[C@@H](C)C(=O)[C@H](C)[C@H]2[C@H](SCCN(Cc3c(Cl)cncc3Cl)c3ccc(OC)c(OC4CCCC4)c3)C(=O)O[C@@]21C` [Example 9 of WO2009/106419], the MIC was 4 µg/mL (≈ 3.8 µM) in data set [1]; above 32 µg/mL in data set [2]; 32 µg/mL (≈ 30.4 µM) in data set [3]; 8 µg/mL (≈ 7.6 µM) in data set [4]; above 32 µg/mL in data set [5]; 4 µg/mL (≈ 3.8 µM) in data set [8]. In addition, the “hERG channel inhibiting activity (in words)” value in [6] was “rather strong”. Moreover, the “Blocking of hERG @ 1 μM (% remaining tail current)” value in data set [6] turned out to be 23.7%. Further, the “Blocking of hERG @ 10 μM (% remaining tail current)” value in data set [6] is listed as 3.7%. The “oral bioavailability (in words)” value in [7] is “moderate”. In addition, the bioavailability in data set [7] was 9%. Further, the “antibacterial activity (in words)” value in [10] was “antibacterially inactive against many pathogenic types of bacteria”. In addition, the “PDE4-inhibiting activity (in words)” value in data set [9] is reported as “good to moderate”. This molecule also returned an IC50 in data set [9] of 0.3 µM.

With `CC[C@H]1OC(=O)[C@H](C)[C@@H](O[C@H]2C[C@@](C)(OC)[C@@H](O)[C@H](C)O2)[C@H](C)[C@@H](O[C@@H]2O[C@H](C)C[C@H](N(C)C(C)=O)[C@H]2O)[C@](C)(OC)C[C@@H](C)C(=O)[C@H](C)[C@H]2[C@H](SCCN(Cc3c(Cl)cncc3Cl)c3ccc(OC)c(OC4CCCC4)c3)C(=O)O[C@@]21C` [Example 10 of WO2009/106419], the MIC was 2 µg/mL (≈ 1.63 µM) in data set [1]; 8 µg/mL (≈ 6.53 µM) in [2]; 8 µg/mL (≈ 6.53 µM) in [3]; above 32 µg/mL in data set [4]; 32 µg/mL (≈ 26.1 µM) in data set [5]; 4 µg/mL (≈ 3.26 µM) in data set [8]. The “Blocking of hERG @ 1 μM (% remaining tail current)” value in data set [6] is 95.9%. Moreover, the “Blocking of hERG @ 10 μM (% remaining tail current)” value in data set [6] came to 85.5%. The “oral bioavailability (in words)” value in data set [7] was “particularly good”. Besides, in data set [7], the bioavailability was 25.5%. Besides, the “antibacterial activity (in words)” value in data set [10] is listed as “strong remaining antibacterial activity against certain types of bacteria”. The “PDE4-inhibiting activity (in words)” value in data set [9] is given as “excellent”. In addition, in data set [9], it took 0.031 µM to reach half-maximal inhibition (IC50).
